Assay results: patent US6900200B2, “Tricyclic hydroxy carboxamides and derivatives thereof tocolytic oxytocin receptor antagonists” (Wyeth, priority 2001, dated 2005)

Target: T1, human vasopressin V2 receptor subtype (Homo sapiens, UniProt P30518)
T1 construct: host or cells: CHO cells, pZeoSV vector
Experiment: Vasopressin binding in CHO cell membranes expressing human vasopressin V2 subtype receptors ([3H]arginine vasopressin radioligand binding)
Details: for inhibition at 0.1 µM: @ 100 nM; for IC50: value printed in parentheses
Description: Vasopressin Binding in Chinese Hamster Ovary Cell Membranes Expressing Human Vasopressin V2 Subtype Receptors
Chinese Hamster Ovary (CHO) cells stably transfected with the human V2 subtype receptors were obtained from M. Thibonnier, Case Western Reserve University School of Medicine, Cleveland, Ohio.
A. Passaging and Amplification of Cells
CHO cells transfected with the human vasopressin V2 subtype receptors obtained from M. Thibonnier (pZeoSV vector) are allowed to grow to confluency (approx. >90%) in T-150 flasks under sterile conditions, in a cell culture medium ofF-12 Nutrient Mixture (HAM) with L-glutamine (Gibco Cat. #11765-054) containing 15 mM HEPES (Gibco Cat. #15630-080), 1% antibiotic/antimycotic (add 5 mL 100×, Gibco Cat. #15240-062 per 500 mL F-12), 250 μg/mL Zeocin (add 1.25 mL of 100 mg/mL Invitrogen R-250-01 per 500 mL F-1 2) and 10% Fetal Bovine Serum (Qualified, heat inactivated, Gibco Cat. #16140-063). The medium is removed by aspiration and the cells washed with 10 mL of Hank's Balanced Salt solution (Gibco Cat. #14175-095). The salt solution is removed by aspiration and the cells trypsinized with 5 mL of trypsin-EDTA (0.05% trypsin, 0.53 mM EDTA-4Na, Gibco Cat. #25300-070) for 1 min. The trypsin is removed by aspiration and the cells dislodged by tapping. Cell Culture medium (e.g. 30 mL for 1:30 split) is immediately added and mixed well to inactivate trypsin. 1 mL of detached cells is added to new culture flasks containing fresh Cell Culture medium (e.g. into 25 mL per T-150 flask), and mixed gently. The cells are incubated at 37° C. in 5% CO2. The medium is changed at 3 to 4 day interval (or as appropriate). The cells grow to confluency (approx. >75%-95%) within 7-8 days. All steps are done under sterile conditions.
The cells are washed twice gently with Hank's Balanced Salt solution (e.g. use 10 mL per T-150 flask). The excess solution is removed and the cells bathed for 15-30 min. in an enzyme-free Cell Dissociation Buffer (e.g. use 8 mL Hank's Based, Gibco Cat. # 13150-016 per T-150 flask) until cells are loosened. The contents are transferred to centrifuge tubes (50 mL) kept in ice bath. All subsequent steps are done at 4° C. The tubes are centrifuged at 300×g for 15 min (1380 rpm on SORVAL, Model RT6000D, using the rotor for 50 mL tubes). The supernatant is discarded and the cells suspended in homogenizing buffer (10 mM Tris-HCl containing 0.25 M sucrose and 1 mM EDTA, pH 7.4) ensuring that the volume of the buffer is about ten times the volume of the cell pellet. The cells are pooled into a centrifuge tube (50 mL) and homogenized with Polytron at setting 6 for 10 sec. The homogenate is transferred into a Potter-Elvjehm homogenizer and homogenized with 3 strokes. The homogenate is centrifuged at 1500×g for 60 min at 4° C. (3100 rpm using SORVAL, model RT6000D, using the rotor for 50 mL tubes). The pellet is discarded. The supernatant is centrifuged at 100,000×g for 60 min. at 4° C. (Beckman L8-80M ultracentrifuge; spin at 37,500 rpm with rotor type 70 Ti for 50 mL tubes; 38,000 rpm with type 80Ti for 15 mL tubes; or 35,800 rpm with rotor type 45Ti). The supernantant is discarded and the pellet suspended in 3 to 4 mL of Tris buffer (50 mM TRIS—HCl, pH 7.4). The protein content is estimated by the Bradford or Lowry method. The volume of the membrane suspension is adjusted with the membrane buffer (50 mM Tris-HCl containing 0.1% BSA and 0.1 mM PMSF) to give 3.0 mg/mL (or as appropriate) of protein. The membranes are aliquoted and stored at −70. ° C.
C. Radioligand Binding Assay
In wells of a 96-well format microtiter plate, is added 90, 110 or 130 μL (to make up a final volume of 200 μL) of assay buffer containing 50 mM of Tris-HCl (pH 7.4), […], 1 mg % aprotinin, 1 mg % leupeptin, 2 mg % 1,10-phenanthroline, 10 mg % trypsin inhibitor, and 0.1 mM PMSF. The inhibitors are added on the day of the experiment. […]

T1 sequence (P30518 whole entry): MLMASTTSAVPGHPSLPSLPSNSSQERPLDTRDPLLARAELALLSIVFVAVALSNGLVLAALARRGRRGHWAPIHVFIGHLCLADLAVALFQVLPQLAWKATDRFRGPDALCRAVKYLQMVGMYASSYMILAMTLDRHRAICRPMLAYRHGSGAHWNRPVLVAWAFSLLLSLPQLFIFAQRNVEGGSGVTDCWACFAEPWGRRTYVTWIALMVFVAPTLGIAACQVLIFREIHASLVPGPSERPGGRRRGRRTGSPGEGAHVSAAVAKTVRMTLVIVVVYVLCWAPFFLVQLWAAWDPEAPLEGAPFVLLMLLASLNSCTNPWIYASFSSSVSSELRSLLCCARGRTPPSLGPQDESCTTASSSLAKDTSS

inhibition at 0.1 µM [%] | IC50 [µM] | SMILES
 | 0.61 | Cc1cc(C(=O)N2Cc3ccc(C(=O)N(CCO)CCO)n3Cc3ccccc32)ccc1-c1ccccc1C(F)(F)F [Example 1, 10-[(2-Methyl-2′-trifluoromethyl-[1,1′-biphenyl]-4-yl)carbonyl]-10,11-dihydro-5H-pyrrolo[2,1-c][1,4]benzodiazepine-3-carboxylic acid bis-(2-hydroxy-ethyl)-amide]
13 |  | Cc1cc(C(=O)N2Cc3ccc(C(=O)NC(CO)(CO)CO)n3Cc3ccccc32)ccc1-c1ccccc1C(F)(F)F [Example 3, 10-[(2-Methyl-2′-trifluoromethyl-[1,1′-biphenyl]-4-yl)carbonyl]-10,11-dihydro-5H-pyrrolo[2,1-c][1,4]benzodiazepine-3-carboxylic acid (2-hydroxy-1,1-bis-hydroxymethyl-ethyl)-amide]
 | 1.19 | Cc1cc(C(=O)N2Cc3ccc(C(=O)N4CCN(C[C@H](O)CO)CC4)n3Cc3ccccc32)ccc1-c1ccccc1C(F)(F)F [Example 5, (2S)-3-{4-[(10-{[2-Methyl-2′-trifluoromethyl-[1,1′-biphenyl]-4-yl]carbonyl}-10,11-dihydro-5H-pyrrolo[2,1-c][1,4]benzodiazepin-3-yl)carbonyl]piperazin-1-yl}propane-1,2-diol]
 | 1.39 | Cc1cc(C(=O)N2Cc3ccc(C(=O)N4CCN(C[C@@H](O)CO)CC4)n3Cc3ccccc32)ccc1-c1ccccc1C(F)(F)F [Example 6, (2R)-3-{4-[(10-{[2-Methyl-2′-trifluoromethyl-[1,1′-biphenyl]-4-yl]carbonyl}-10,11-dihydro-5H-pyrrolo[2,1-c][1,4]benzodiazepin-3-yl)carbonyl]piperazin-1-yl}propane-1,2-diol]
 | 0.769 | COC[C@H](O)CN1CCN(C(=O)c2ccc3n2Cc2ccccc2N(C(=O)c2ccc(-c4ccccc4C(F)(F)F)c(C)c2)C3)CC1 [Example 8, (2R)-1-Methoxy-3-{4-[(10-{[2-methyl-2′-trifluoromethyl-[1,1′-biphenyl]-4-yl]carbonyl}-10,11-dihydro-5H-pyrrolo[2,1-c][1,4]benzodiazepin-3-yl)carbonyl]piperazin-1-yl}propan-2-ol]
 | 1.23 | COC[C@@H](O)CN1CCN(C(=O)c2ccc3n2Cc2ccccc2N(C(=O)c2ccc(-c4ccccc4C(F)(F)F)c(C)c2)C3)CC1 [Example 9, [3-({4-[(2S)-2-Hydroxy-3-methoxypropyl]-1-piperazinyl}carbonyl)-5H-pyrrolo[2,1-c][1,4]benzodiazepin-10(11H)-yl][2-methyl-2′-trifluoromethyl-[1,1′-biphenyl]-4-yl]methanone]
 | 2.22 | COCC(CN(C)C(=O)c1ccc2n1Cc1ccccc1N(C(=O)c1ccc(-c3ccccc3C(F)(F)F)c(C)c1)C2)OC (centres unmarked) [Example 10, N-(2,3-Dimethoxypropyl)-N-methyl-10-{[2-methyl-2′-trifluoromethyl-[1,1′-biphenyl]-4-yl]carbonyl}-10,11-dihydro-5H-pyrrolo[2,1-c][1,4]benzodiazepine-3-carboxamide]
 | 0.356 | Cc1cc(C(=O)N2Cc3ccc(C(=O)N(C)CC4COC(=O)O4)n3Cc3ccccc32)ccc1-c1ccccc1C(F)(F)F (centres unmarked) [Example 11, 10-[(2-Methyl-2′-trifluoromethyl-[1,1′-biphenyl]-4-yl)carbonyl]-10,11-dihydro-5H-pyrrolo[2,1-c][1,4]benzodiazepine-3-carboxylic acid methyl-[(2-oxo-[1,3]dioxolan-4-yl)methyl]-amide]
 | 0.99 | CC(=O)OCC(CN(C)C(=O)c1ccc2n1Cc1ccccc1N(C(=O)c1ccc(-c3ccccc3C(F)(F)F)c(C)c1)C2)OC(C)=O (centres unmarked) [Example 13, 2-(Acetyloxy)-1-({methyl[(10-{[2-methyl-2′-trifluoromethyl-[1,1′-biphenyl]-4-yl]carbonyl}-10,11-dihydro-5H-pyrrolo[2,1-c][1,4]benzodiazepin-3-yl)carbonyl]amino}methyl)ethyl acetate]

Further lines, the molecule ahead of its results:

SMILES | inhibition at 0.1 µM [%] | IC50 [µM]
COc1ccccc1-c1ccc(C(=O)N2Cc3ccc(C(=O)N(C)C[C@H](O)CO)n3Cc3ccccc32)cc1C (single isomer, unassigned) [Example 15] | 74 | 
COc1ccccc1-c1ccc(C(=O)N2Cc3ccc(C(=O)N(C)C[C@@H](O)CO)n3Cc3ccccc32)cc1C (single isomer, unassigned) [Example 16] | 51 | 
COc1cc(C(=O)N2Cc3ccc(C(=O)N(C)C[C@@H](O)[C@H](O)[C@H](O)[C@@H](O)CO)n3Cc3ccccc32)ccc1-c1ccccc1C(F)(F)F (stereo in doubt) [Example 23, 10-{[2-Methoxy-2′-trifluoromethyl-[1,1′-biphenyl]-4-yl]carbonyl}-N-methyl-N-[(2R,3S,4R,5S)-2,3,4,5,6-pentahydroxyhexyl]-10,11-dihydro-5H-pyrrolo[2,1-c][1,4]benzodiazepine-3-carboxamide] |  | 0.451
Cc1cc(C(=O)N2Cc3ccc(C(=O)N(C)C[C@H](O)[C@@H](O)[C@H](O)[C@H](O)CO)n3Cc3ccccc32)ccc1-c1ccccc1C(F)(F)F [Example 4, 10-[(2-Methyl-2′-trifluoromethyl-[1,1′-biphenyl]-4-yl)carbonyl]-10,11-dihydro-5H-pyrrolo[2,1-c][1,4]benzodiazepine-3-carboxylic acid methyl-((2S,3R,4R,5R)-2,3,4,5,6-pentahydroxy-hexyl)-amide] |  | 0.617
Cc1cc(C(=O)N2Cc3ccc(C(=O)N(C)C[C@@H]4OC(=O)O[C@H]4[C@H](O)[C@H]4COC(=O)O4)n3Cc3ccccc32)ccc1-c1ccccc1C(F)(F)F [Example 12, N-[((4S,5S)-5-{(R)-Hydroxy[(4R)-2-oxo-1,3-dioxolan-4-yl]methyl}-2-oxo-1,3-dioxolan-4-yl)methyl]-N-methyl-10-{[2-methyl-2′-(trifluoromethyl)[1,1′-biphenyl]-4-yl]carbonyl}-10,11-dihydro-5H-pyrrolo[2,1-c]benzodiazepine-3-carboxamide] |  | 0.763
COc1ccccc1-c1ccc(C(=O)N2Cc3ccc(C(=O)N(C)CC(O)CO)n3Cc3ccccc32)cc1C (centres unmarked) [Example 14, 10-[(2′-Methoxy-2-methyl-[1,1′-biphenyl]-4-yl)carbonyl]-10,11-dihydro-5H-pyrrolo[2,1-c][1,4]benzodiazepine-3-carboxylic acid (2,3-dihydroxy-propyl)-methyl-amide] |  | 0.205
COc1ccccc1-c1ccc(C(=O)N2Cc3ccc(C(=O)N(C)C[C@H](O)[C@@H](O)[C@H](O)[C@H](O)CO)n3Cc3ccccc32)cc1C [Example 17, 10-[(2′-Methoxy-2-methyl-[1,1′-biphenyl]-4-yl)carbonyl]-10,11-dihydro-5H-pyrrolo[2,1-c][1,4]benzodiazepine-3-carboxylic acid methyl-[(2S,3R,4R, 5R)-2,3,4,5,6-pentahydroxy-hexyl)-amide] |  | 0.144
COc1cc(-c2ccccc2C(F)(F)F)c(Cl)cc1C(=O)N1Cc2ccc(C(=O)N(C)C[C@H](O)[C@@H](O)[C@H](O)[C@H](O)CO)n2Cc2ccccc21 [Example 20, 10-{[6-Chloro-3-methoxy-2′-trifluoromethyl-[1,1′-biphenyl]-4-yl]carbonyl}-N-methyl-N-[(2S,3R,4R,5R)-2,3,4,5,6-pentahydroxyhexyl]-10,11-dihydro-5H-pyrrolo[2,1-c][1,4]benzodiazepine-3-carboxamide] |  | 0.227
